Experimental data: PMC11685595, “Measuring plant cysteine oxidase interactions with substrates using intrinsic tryptophan fluorescence” (Scientific Reports, 2024)
Peptide text beside a SMILES is read from it.

Tests used:
[1] = biological target: T1, AtPCO4.Ni(II) (Arabidopsis thaliana, UniProt Q9SJI9); test: Plate-based intrinsic Trp fluorescence quenching binding assay, AtPCO4.Ni(II); settings: 8 µM AtPCO4.Ni(II) (enzyme:metal 1:2), 0-750 µM peptide, anaerobic, 10 min, 25 °C, 50 mM Tris pH 7.5, 0.4 M NaCl, λex/λem 280/350 nm; ± Std. Error of fit, n = 3
T1 construct: His6 (cleaved yes); made in house
Description: (§1) Following affinity purification, the His6-tag was cleaved using TEV protease and the cleaved tag was removed using a HisTrap HP column (GE Healthcare). To remove the active site metal which co-purifies with PCO enzymes, concentrated protein fractions were dialysed into 50 mM Tris (pH 7.5), 0.4 M NaCl, 100 mM EDTA and 10 mM 1,10-Phenanthroline followed by dialysis into 50 mM Tris (pH 7.5), 0.4 M NaCl and 0.1% (w/v) Chelex® 100 resin to remove excess EDTA and 1,10-Phenanthroline. Dialysed protein was then purified with a HiLoad 26/600 Superdex 75 prep grade size exclusion column (GE Healthcare) equilibrated with 50 mM Tris (pH 7.5) and 0.4 M NaCl (herein termed assay buffer). Protein purity was assessed with SDS-PAGE. To check that Fe(II) was removed, activity assays of metal-removed protein were conducted as described previously.
(§2) Metal-removed AtPCO4/5 was incubated with Ni(II) (NiCl2.6H2O, Alfa Aesar) at enzyme:metal, 1:2 ratio and diluted to the desired volume in assay buffer to a final enzyme concentration of 8 µM, termed the enzyme master mix.

[2] = biological target: T2, AtPCO5.Ni(II) (Arabidopsis thaliana, UniProt Q9LXT4); test: Plate-based intrinsic Trp fluorescence quenching binding assay, AtPCO5.Ni(II); settings: 8 µM AtPCO5.Ni(II) (enzyme:metal 1:2), 0-750 µM peptide, anaerobic, 10 min, 25 °C, 50 mM Tris pH 7.5, 0.4 M NaCl, λex/λem 280/350 nm; ± Std. Error of fit, n = 3
T2 construct: His6 (cleaved yes); made in house
T2 sequence (Q9LXT4 whole entry): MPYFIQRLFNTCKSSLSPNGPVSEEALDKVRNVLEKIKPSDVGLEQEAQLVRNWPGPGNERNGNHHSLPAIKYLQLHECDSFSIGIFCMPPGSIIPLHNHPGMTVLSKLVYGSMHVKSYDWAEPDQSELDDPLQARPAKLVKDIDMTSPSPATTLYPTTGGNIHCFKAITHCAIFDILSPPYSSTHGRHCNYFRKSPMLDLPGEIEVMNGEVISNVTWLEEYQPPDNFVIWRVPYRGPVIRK
Description: as §1, §2

CC[C@H](C)[C@H](NC(=O)[C@H](C)NC(=O)CNC(=O)CNC(=O)[C@@H](N)CS)C(=O)N[C@@H](CC(C)C)C(=O)N[C@@H](CO)C(=O)N[C@@H](CC(=O)O)C(=O)N[C@H](C(=O)N[C@H](C(=O)N[C@@H](C)C(=O)N1CCC[C@H]1C(=O)N[C@@H](CO)C(=O)N[C@@H](C)C(=O)O)[C@@H](C)CC)[C@@H](C)CC [HRE1_2-15] (H-CGGAILSDIIAPSA-OH)
Kd [1]: 298 ± 37.7 µM | Kd [2]: 223 ± 10.3 µM
